According to US6133273A, “Pyrazolopyrimidine-2,4-dione sulfonamides” (American Home Products Corporation, priority 1999, dated 2000):

What was measured:
[1] = system: C1-3 cell line (calcitonin secretion); assay: Calcitonin Secretion/RIA Assay; format: cell-based, human; settings: active if >2.5; for fold induction at 30 µM: Homo sapiens, C13, ratio of calcitonin secretion vs untreated control
Procedure: Cell Line: C1-3 (Parent Cell Line: TT-medullary thyroid carcinoma),
Reagent A--(Anti-Calcitonin)
Regent C--(Anti-Goat Precipitant)
Regent D--(Zero Standard).
Reagents E-I--(Calcitonin Standards)
Reagents J-K (Calcitonin Controls: Level and Level 2)
1. Glass tubes were labeled to include Total Count (TC), Nonspecific Binding (NSB), Maximum Binding (Bo), Standards, Controls and Patient Sera in duplicate.
2. […] of Standard Zero (Reagent D) was added to tubes 3 through 6 (NSB and Bo).
3. […] of Standards* (Reagents E-1) was added to tubes 7-16 as follows:
4. […] of Patient Serum 1 was added to tubes 21 and 22, Patient Serum 2 was added to tubes 23 and 24, etc.
5. […] of Reagent L (NSB Buffer) was added to tubes 3 and 4.
6. […] of Reagent A (Anti-Calcitonin) was added to all tubes except tubes 1 & 2 (TC) and tube 3 & 4 (NSB). All tubes were vortexed, covered with parafilm or foil and incubated 44±6 hours at 2-8° C.
7. […] All tubes were vortexed, covered with parafilm or foil and incubated 22±3 hours at 2-8° C.
8. Reagent C (Anti-Goat Precipitant) was mixed gently but thoroughly by inverting the vial several times before use. 1 mL Reagent C was added to all tubes except 1 and 2 (TC). Tubes were vortexed and incubated 20 minutes at room temperature.
9. All tubes were centrifuged at 1300-1500×g for 15 minutes at 2-8° C.
10. Supernatant was decanted immediately after centrifugation taking care to leave the precipitate intact.
11. Tubes were counted 4 minutes or longer.
Secretion Ratio: Stimulation of calcitonin secretion is expressed as a ratio of secretion activity in the presence of test compound compared to the secretion activity in the untreated control: [formula]

[2] = system: PDE-IV; assay: Inhibition of Phosphodiesterase IV (PDE-IV) isolated from human U937 cells; format: biochemical; settings: U937 cell PDE-IV, 1 μM [3H]-cAMP, 37° C., test compound 0.001 μM to 10 μM
Procedure: This assay was used to biochemically assess the ability of a test compound to inhibit PDE-IV isolated from a U937 cell line, where PDE-IV refers to the cGMP-insensitive, cAMP-selective PDE.
Cell Culture: U937 cells were grown in RPMI 1640 medium supplemented with 10% heat-inactivated fetal calf serum and Penicillin/Streptomycin (100 units/100 μg per mL) in a humidified 5% CO2 atmosphere at 37° C. Starter cells were maintained in continuous logarithmic growth by seeding them in 75 cm^2 vented tissue culture flasks at a concentration of 3×10^4 cells/mL and passing them every 3-4 days when the cells reached approximately 8×10^5 cells/mL. For experiments, 3-4 day starter cells were seeded in 225 cm^2 flasks at 1×10^5 cells/mL and harvested 3-4 days later at approx. 6×10^5 cells/mL.
Isolation of PDE-IV: U937 cells were activated with 10 μM dibutyryl cAMP for a period of 4 hours (to up-regulate PDE-IV) and then harvested by centrifugation at 1200×g for 10 min in 250 mL conical centrifuge tubes. The pellet from each 200 mL flask was resuspended in 5 mL buffer A [10 mM Tris-HCl, 5 mM MgCl2, 4 mM EGTA, 5 mM 2-mercaptoethanol, 1 μM leupeptin, 1 μM pepstatin A, and 5 μM phenylmethyl sulfonyl fluoride (PMSF) (pH 7.8)], and the cells were lysed using 3 cycles of freezing (3 min in dry ice/acetone) followed by thawing (warm water). […] To determine which families of PDEs were present, fractions may be assayed for hydrolytic activity with 1 μM [^3 H]-cAMP or 1 μM [^3 H]-cGMP. Additionally, 1 μM [^3 H]-cAMP assays were conducted in the presence of 10 μM rolipram, 10 μM cGMP, or calmodulin (1 unit/0.4 mL plus 10 μM CaCl2).
When prepared in this manner, approximately 80% of total cAMP PDE activity is eluted by Buffer B containing 0.7 M sodium acetate. This PDE activity consists of>90% PDE-IV (as evidenced by its susceptibility to inhibition by rolipram.
PDE assay: PDE activity was measured using a modification of the radioisotope procedure previously described by Thompson et al. (Thompson, W. J., Terasaki, W. L., Epstein, P. M. and Strada, S. J. Adv, Cyclic Nucleotide Res. 1979, 10, 69). Reaction mixtures (0.4 mL) contain 40 mM Tris-HCl (pH 7.8), 4 mM 2-mercaptoethanol, 5 mM MgCl2, 0.1 μM leupeptin, 0.1 μM pepstatin A, 0.1 μM PMSF, 1 μM [3H]-cAMP or 1 μM [^3 H]-cGMP (~200,000 DPM), and enzyme to initiate the reaction. ^3 H-cAMP substrate was prepared as follows: A stock solution of ^3 H-cyclic nucleotide (1000 μCi/mL) was diluted 1:10 in 50% EtOH. 200 μl of this diluted stock solution was added to a cold (unlabeled) cyclic nucleotide solution, made at a concentration of 4 μM. 100 μl of this solution was used per assay tube to achieve a final concentration of 1 μM cyclic nucleotide per assay tube (200,000 DPM). Enzyme activity was determined at 37° C. Reactions were terminated by boiling, incubating with snake venom, and cooling as previously described (Thompson et al., 1979). The reaction mixture was applied to a (0.8×8.5 cm) column containing 0.4 g Dowex I-X8 affinity resin; reaction tubes were rinsed with 0.5 mL of methanol; and this, along with an extra 1 mL of methanol, was applied to the column to elute the ^3 H-reaction products. After all liquid has passed through the column, the column was plunged with a 12 cc syringe plunger. Each column's eluate was collected in a 20 mL scintillation vial containing 10 mL aquasol-2 and counted by scintillation spectrophotometry. [^3 H]-adenosine or [^3 H]-guanosine recovery was corrected for background DPM determined in the absence of enzyme. The amount of enzyme and duration of assay were adjusted to ensure that less than 25% of the substrate was consumed under these conditions.
Measurements: Inhibition by a test compound was measured as a percent reduction of total PDE activity, and calculated as follows: [formula] where A is the PDE activity (mean DPM-background DPM) in the presence of test compound, and B is the total PDE-IV activity (mean DPM-background DPM) in the absence of test compound. […]

[3] = system: promoter region of the human calcitonin gene (luciferase reporter, C1-3 cells); assay: Calcitonin/Luciferase Reporter Gene Expression Assay; settings: for fold induction at 30 µM: read-out: TAR (transcription activation ratio)
Procedure: This assay was used to determine the ability of a compound to stimulate transcription of a luciferase reporter gene regulated by 3 kb of the promoter region of the human calcitonin gene.
C1-3 cells were plated at a density of 6,500-7,500 cells per well in a 96-plate microtiter plate. Twenty-four to forty-eight hours later, compounds were added to the wells in triplicate. Compounds were tested at a concentration of 10 μg/mL in 0.5% DMSO.
The production of light is measured on a luminometer.
TAR Ratio: Stimulation of calcitonin promoter-dependent transcription is expressed as a ratio of luciferase activity (LUCI) in the presence of test compound compared to the LUCI activity in the untreated control: [formula]

## 4,6-Dibutyl-1-(propane-1-sulfonyl)-1,4-dihydro-pyrazolo[4,3-d]pyrimidine-5,7-dione [Example 9]
[1]; 30 μM, ratio of calcitonin secretion vs untreated control
  Secretion Ratio: 2.71
[2]
  % Inhibition of PDE IV (normalized to rolipram): 27%
[3]; 30 μM, ratio of luciferase activity vs untreated control, active if TAR>1.5
  TAR (transcription activation ratio): 1.47

## CCCCn1c(=O)c2nn(S(=O)(=O)CCCCl)cc2n(CCCC)c1=O [Example 1, 4,6-Dibutyl-3-chloropropanesulfonyl-2,4-dihydro-pyrazolo[4,3-d]pyrimidine-5,7-dione]
[1]
  fold induction at 30 µM: 4.35
[3]; Homo sapiens, C13, 12 h
  fold induction at 30 µM: 1.34

## CCCCn1c(=O)c2nn(S(=O)(=O)Cc3ccccc3)cc2n(CCCC)c1=O [Example 2, 4,6-Dibutyl-2-phenylmethanesulfonyl-2,4-dihydro-pyrazolo[4,3-d]pyrimidine-5,7-dione]
[1]
  fold induction at 30 µM: 2.55
[2]
  % Inhibition of PDE IV (normalized to rolipram): 35%
[3]; Homo sapiens, C13, 12 h
  fold induction at 30 µM: 1.51

## CCCCn1c(=O)c2nn(S(=O)(=O)c3cccc(C(F)(F)F)c3)cc2n(CCCC)c1=O [Example 3, 4,6-Dibutyl-2-(3-trifluoromethyl-benzenesulfonyl)-2,4-dihydro-pyrazolo[4,3-d]pyrimidine-5,7-dione]
[1]
  fold induction at 30 µM: 3.79
[2]
  % Inhibition of PDE IV (normalized to rolipram): 68%
[3]; Homo sapiens, C13, 12 h
  fold induction at 30 µM: 1.79

## Nc1ncnc2c1nc(Sc1ccc(Cl)cc1)n2[C@@H]1O[C@@H]2COP(=O)(O)O[C@H]2[C@H]1O [Example 8-CPT-cAMP, 8-CPT-cAMP, reference compound]
[3]; Homo sapiens, C13, 12 h, read-out: fold induction of luciferase (control stimulation)
  fold induction at 1000 µM: 2 to 3

## CCCCn1c(=O)c2nn(S(=O)(=O)c3c(Cl)cc(Cl)cc3Cl)cc2n(CCCC)c1=O [Example 11, 4,6-Dibutyl-2-(2,4,6-trichloro-benzenesulfonyl)-2,4-dihydro-pyrazolo[4,3-d]pyrimidine-5,7-dione]
[1]
  fold induction at 30 µM: 4.31
[2]
  % Inhibition of PDE IV (normalized to rolipram): 26%
[3]; Homo sapiens, C13, 12 h
  fold induction at 30 µM: 1.76

## CCCCn1c(=O)c2nn(S(=O)(=O)c3cccc4cccnc34)cc2n(CCCC)c1=O [Example 12, 4,6-Dibutyl-2-(quinoline-8-sulfonyl)-2,4-dihydro-pyrazolo[4,3-d]pyrimidine-5,7-dione]
[1]
  fold induction at 30 µM: 3.83
[2]
  % Inhibition of PDE IV (normalized to rolipram): 41%
[3]; Homo sapiens, C13, 12 h
  fold induction at 30 µM: 2.22

## CCCCn1c(=O)c2cn(S(=O)(=O)CCCCl)nc2n(CCCC)c1=O [Example 13, 5,7-Dibutyl-2-(3-chloro-propane-1-sulfonyl)-2,7-dihydro-pyrazolo[3,4-d]pyrimidine-4,6-dione]
[1]
  fold induction at 30 µM: 2.71
[2]
  % Inhibition of PDE IV (normalized to rolipram): 34%
[3]; Homo sapiens, C13, 12 h
  fold induction at 30 µM: 1.91

## CCCCn1c(=O)c2cn(S(=O)(=O)c3ccc(OC(F)(F)F)cc3)nc2n(CCCC)c1=O [Example 14, 5,7-Dibutyl-2-(4-trifluoromethoxy-benzenesulfonyl)-2,7-dihydro-pyrazolo[3,4-d]pyrimidine-4,6-dione]
[1]
  fold induction at 30 µM: 4.29
[2]
  % Inhibition of PDE IV (normalized to rolipram): 92%
[3]; Homo sapiens, C13, 12 h
  fold induction at 30 µM: 2.22

## CCCCn1c(=O)c2cn(S(=O)(=O)c3cc(Cl)c(Cl)s3)nc2n(CCCC)c1=O [Example 15, 5,7-Dibutyl-2-(4,5-dichloro-thiophene-2-sulfonyl)-2,7-dihydro-pyrazolo[3,4-d]pyrimidine-4,6-dione]
[1]
  fold induction at 30 µM: 3.67
[2]
  % Inhibition of PDE IV (normalized to rolipram): 59%
[3]; Homo sapiens, C13, 12 h
  fold induction at 30 µM: 2.93

## CCCCn1c(=O)c2cn(S(=O)(=O)c3ccc(C(F)(F)F)cc3)nc2n(CCCC)c1=O [Example 16, 5,7-Dibutyl-2-(4-trifluoromethyl-benzenesulfonyl)-2,7-dihydro-pyrazolo[3,4-d]pyrimidine-4,6-dione]
[1]
  fold induction at 30 µM: 3.86
[2]
  % Inhibition of PDE IV (normalized to rolipram): 62%
[3]; Homo sapiens, C13, 12 h
  fold induction at 30 µM: 2.61

## CCCCn1c(=O)c2cn(S(C)(=O)=O)nc2n(CCCC)c1=O [Example 17, 5,7-Dibutyl-2-methanesulfonyl-2,7-dihydro-pyrazolo[3,4-d]pyrimidine-4,6-dione]
[1]
  fold induction at 30 µM: 3.93
[2]
  % Inhibition of PDE IV (normalized to rolipram): 17%
[3]; Homo sapiens, C13, 12 h
  fold induction at 30 µM: 1.95

## CCCCn1c(=O)n(C)c(=O)c2nn(S(=O)(=O)CCCCl)cc21 [Example 18, 4-Butyl-2-(3-chloro-propane-1-sulfonyl)-6-methyl-2,4-dihydro-pyrazolo[4,3-d]pyrimidine-5,7-dione]
[1]
  fold induction at 30 µM: 1.38
[2]
  % Inhibition of PDE IV (normalized to rolipram): 34%
[3]; Homo sapiens, C13, 12 h
  fold induction at 30 µM: 1.1

## CCCCn1c(=O)c2cn(S(=O)(=O)Cc3ccccc3)nc2n(CCCC)c1=O [Example 19, 5,7-Dibutyl-2-phenylmethanesulfonyl-1,7-dihydro-pyrazolo[3,4-d]pyrimidine-4,6-dione]
[1]
  fold induction at 30 µM: 3.43
[2]
  % Inhibition of PDE IV (normalized to rolipram): 48%
[3]; Homo sapiens, C13, 12 h
  fold induction at 30 µM: 1.97

## CCCCn1c(=O)c2nn(S(=O)(=O)CCCCl)cc2n(CCC(C)C)c1=O [Example 20, 6-Butyl-2-(3-chloro-propane-1-sulfonyl)-4-(3-methyl-butyl)-2,4-dihydro-pyrazolo[4,3-d]pyrimidine-5,7-dione]
[1]
  fold induction at 30 µM: 2.25
[2]
  % Inhibition of PDE IV (normalized to rolipram): 42%
[3]; Homo sapiens, C13, 12 h
  fold induction at 30 µM: 1.57

## Cn1c(=O)c2cn(S(=O)(=O)CCCCl)nc2n(C)c1=O [Example 21, 2-(3-Chloro-propane-1-sulfonyl)-5,7-dimethyl-2,7-dihydro-pyrazolo[3,4-d]pyrimidine-4,6-dione]
[1]
  fold induction at 30 µM: 1.02
[2]
  % Inhibition of PDE IV (normalized to rolipram): 68%
[3]; Homo sapiens, C13, 12 h
  fold induction at 30 µM: 1.2

## O=c1c2cn(S(=O)(=O)CCCCl)nc2n(CC2CC2)c(=O)n1CC1CC1 [Example 22, 2-(3-Chloro-propane-1-sulfonyl)-5,7-bis-cyclopropylmethyl-2,7-dihydro-pyrazolo[3,4-d]pyrimidine-4,6-dione]
[1]
  fold induction at 30 µM: 2.93
[2]
  % Inhibition of PDE IV (normalized to rolipram): 30%
[3]; Homo sapiens, C13, 12 h
  fold induction at 30 µM: 1.6
